Data on three compounds can be found in article PMC11408249, “Non-invasive in vivo imaging of changes in Collagen III turnover in myocardial fibrosis” (npj Imaging, 2024).

For data set [1], the target named is T1, COL3 (Mus musculus, UniProt P08121).
T1 construct: from tissue; host or cells: infarcted left-ventricular myocardium of female CD1 mice, in vivo
T1 sequence (P08121 155-1219 limits assumed): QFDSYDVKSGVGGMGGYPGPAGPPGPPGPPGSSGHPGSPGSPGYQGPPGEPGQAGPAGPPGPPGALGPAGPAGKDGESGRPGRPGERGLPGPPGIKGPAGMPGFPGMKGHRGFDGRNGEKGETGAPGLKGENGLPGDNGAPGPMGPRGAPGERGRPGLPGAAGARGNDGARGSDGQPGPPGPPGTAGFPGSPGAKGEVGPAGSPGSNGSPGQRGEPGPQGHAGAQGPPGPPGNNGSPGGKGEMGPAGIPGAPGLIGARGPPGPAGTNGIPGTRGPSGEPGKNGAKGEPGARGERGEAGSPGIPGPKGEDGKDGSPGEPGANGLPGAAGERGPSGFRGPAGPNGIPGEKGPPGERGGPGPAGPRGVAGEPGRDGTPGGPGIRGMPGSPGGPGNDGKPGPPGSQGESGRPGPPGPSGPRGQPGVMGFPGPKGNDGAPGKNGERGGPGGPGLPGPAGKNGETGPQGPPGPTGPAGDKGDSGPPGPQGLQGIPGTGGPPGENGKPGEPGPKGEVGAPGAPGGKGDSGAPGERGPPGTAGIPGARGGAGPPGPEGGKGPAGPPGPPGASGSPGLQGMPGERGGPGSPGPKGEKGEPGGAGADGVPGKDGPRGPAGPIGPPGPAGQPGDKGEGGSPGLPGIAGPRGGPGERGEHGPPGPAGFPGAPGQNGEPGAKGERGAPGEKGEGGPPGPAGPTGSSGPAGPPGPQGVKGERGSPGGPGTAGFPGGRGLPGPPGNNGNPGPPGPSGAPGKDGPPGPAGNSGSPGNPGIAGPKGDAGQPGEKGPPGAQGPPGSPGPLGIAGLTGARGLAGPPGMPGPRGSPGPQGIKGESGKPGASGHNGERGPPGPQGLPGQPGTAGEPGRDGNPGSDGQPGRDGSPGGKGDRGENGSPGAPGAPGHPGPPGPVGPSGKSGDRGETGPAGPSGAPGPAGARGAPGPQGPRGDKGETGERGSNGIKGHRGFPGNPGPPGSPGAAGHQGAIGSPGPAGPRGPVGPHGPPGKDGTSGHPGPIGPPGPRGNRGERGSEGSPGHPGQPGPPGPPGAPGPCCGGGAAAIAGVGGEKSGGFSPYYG
The data set can be described thus: Molecular CMR of COL3 in a murine model of myocardial infarction. Conditions: control agents, i.v. 0.2 mmol/kg, 30 minutes post-injection, n = 2–3 per group. Format: in vivo, mice.

For data set [2] the following is noted: 20 MHz, 37 °C, cited from earlier work. As to the method:
Table 1 Relaxivities of monomeric and tetrameric probes bearing CBP1 and CBP2 peptide moieties, in PBS and 0.6 mM human serum albumin (HAS) at 20 MHz and 37 °C | column: r1 mM (mM^−1 s^−1) / PBS; r1 mM (mM^−1 s^−1) / HSA 0.6 mM || To further characterise the molecular characteristics of these probes, the ^1H nuclear magnetic relaxation dispersion profiles (^1H-NMRD) of Gd-DOTAMA-CBP1, Gd-DOTAMA-CBP2 and [Gd-DOTAMA]4-CBP1 were acquired in phosphate buffer saline (PBS) and in 0.6 mM human serum albumin (HSA), at 25 and 37 °C (Supplementary Fig. 3a–c). The profiles obtained were characteristic of small-molecular weight (MW) complexes, even when in the presence of HSA. Table 1 summarises the relaxivity values at 20 MHz and 37 °C, for all probes and for Gadovist[45] a nonpeptide-based (non-targeted) clinically approved contr ...

For data set [3], the target named is T2, COL3 (Homo sapiens, UniProt P02461).
T2 sequence (P02461 154-1221 limits assumed): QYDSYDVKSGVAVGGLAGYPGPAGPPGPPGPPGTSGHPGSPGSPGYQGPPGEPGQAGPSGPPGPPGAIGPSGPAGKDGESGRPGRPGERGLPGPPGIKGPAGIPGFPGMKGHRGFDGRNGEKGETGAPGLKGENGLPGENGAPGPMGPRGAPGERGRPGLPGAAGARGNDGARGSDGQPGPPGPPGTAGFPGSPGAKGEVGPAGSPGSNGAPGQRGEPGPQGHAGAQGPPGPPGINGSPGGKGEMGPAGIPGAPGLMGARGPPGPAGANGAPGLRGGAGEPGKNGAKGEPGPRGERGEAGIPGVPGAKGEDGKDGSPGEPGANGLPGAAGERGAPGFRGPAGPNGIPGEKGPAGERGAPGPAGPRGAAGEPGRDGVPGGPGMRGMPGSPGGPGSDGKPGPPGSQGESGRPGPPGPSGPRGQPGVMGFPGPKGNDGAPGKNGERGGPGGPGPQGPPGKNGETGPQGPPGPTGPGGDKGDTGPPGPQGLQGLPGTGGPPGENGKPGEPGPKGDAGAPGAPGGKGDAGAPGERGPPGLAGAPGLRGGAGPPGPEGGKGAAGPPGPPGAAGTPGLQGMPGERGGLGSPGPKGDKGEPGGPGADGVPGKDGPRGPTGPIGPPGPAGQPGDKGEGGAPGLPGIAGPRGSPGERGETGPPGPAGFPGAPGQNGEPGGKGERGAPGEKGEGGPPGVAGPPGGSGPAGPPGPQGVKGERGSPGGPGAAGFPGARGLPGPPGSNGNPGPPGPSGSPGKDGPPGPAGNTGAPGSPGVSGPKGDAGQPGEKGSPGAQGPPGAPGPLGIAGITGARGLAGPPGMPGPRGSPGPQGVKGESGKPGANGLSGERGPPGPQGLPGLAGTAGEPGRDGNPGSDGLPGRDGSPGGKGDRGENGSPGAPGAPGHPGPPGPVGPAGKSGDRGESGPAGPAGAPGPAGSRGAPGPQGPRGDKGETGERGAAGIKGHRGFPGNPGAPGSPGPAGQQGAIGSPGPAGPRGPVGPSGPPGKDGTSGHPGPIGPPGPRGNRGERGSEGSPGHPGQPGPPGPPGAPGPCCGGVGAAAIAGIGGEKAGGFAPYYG
The data set can be described thus: Eu(III) time resolved fluorescence (TRF) plate binding assay on immobilised COL3. Conditions: immobilised COL3, probe up to 15 µM. The method, then:
The protocol to assess the binding affinity of the Eu(III)-labelled collagen probes to COL3 has been optimised previously. Such an assay is based on the Eu(III) TRF which detects the amount of Eu(III)-labelled probes that bind to COL3 immobilised on a multi-well plate. The assay was used to measure the COL3 binding affinity of the monomeric Eu(III)-labelled probes (expressed as the dissociation constant, Kd). The same assay was carried out with COL1, to estimate the selectivity for COL3 binding in respect to COL1. Potential unspecific binding effects associated with the assay were investigated by using two types of control experiments: (i) the scrambled versions of the Eu(III)-labelled probes were used as negative controls in TRF plate assays with immobilised collagen (either COL3 or COL1); and (ii) the collagen specific probes were assayed against elastin and bovine serum albumin (BSA) as control non-binding proteins. Briefly, increasing concentrations of the peptide (0.1–15 µM; 70 µL per well) were incubated in 96-well microplates pre-coated with the desired protein. Triplicate readings were taken per concentration and three independent experiments (plates) were used. After incubation of the peptide with the protein for one hour, the plates were washed with PBS to remove any free (unbound) peptide. […] The plates were then read using a luminescence plate reader. […]

The test system of data set [4] is COL3 remodelling. As to the kind of experiment: Enalapril treatment after myocardial infarction, read out by COL3 molecular CMR and cine MRI. Format: in vivo, mice.

Marks after values point to notes of the source that are not given here. Residues, ends and D or L forms follow the SMILES beside them. *: point of attachment. DOTA = O=C(O)CN1CCN(CC(=O)O)CCN(CC(=O)*)CCN(CC(=O)O)CC1

As to `O=C([O-])CN1CCN(CC(=O)[O-])CCN([C@H](CO)[C@H](O)CO)CCN(CC(=O)[O-])CC1.[Gd+3]` (racemic) [Gadovist], the “signal enhancement in the infarct, both timepoints after MI (in words)” value in data set [1] is “No enhancement”. Further, the “r1 in PBS” value in data set [2] (column PBS) is 3.7 mM⁻¹ s⁻¹. Besides, in data set [2] (in non-sterile bovine plasma (albumin 0.64 to 0.82 mmol/L)), the “r1 (column HSA 0.6 mM)” value is 6.1* mM^−1 s^−1.
On to `CC(C)[C@H](NC(=O)[C@H](CCC(=O)O)NC(=O)[C@H](CO)NC(=O)[C@H](CCCCN)NC(=O)[C@H](CCCNC(=N)N)NC(=O)[C@H](C)NC(=O)[C@H](CC(=O)O)NC(=O)CN1CCN(CC(=O)O)CCN(CC(=O)O)CCN(CC(=O)O)CC1)C(=O)N[C@@H](CCC(N)=O)C(=O)N[C@@H](CCCCN)C(=O)O` [Eu-DOTAMA-CBP1] ({DOTA}-DARKSEVQK-OH), for which the “fractional occupancy (FO) at the highest concentration of probe” value in data set [3] was found to be 74%.
Turning to `CCOC(=O)[C@H](CCc1ccccc1)N[C@@H](C)C(=O)N1CCC[C@H]1C(=O)O` [enalapril], the “volume of signal enhancement (LGE volume) at day 21 versus untreated mice (in words)” value in data set [4] (enalapril 20 mg/kg/day in drinking water after MI, imaged with [Gd-DOTAMA]4-CBP1, n = 7 per group) is “significantly higher volume of signal enhancement”. Besides, the “cardiac geometry and function versus untreated mice (in words)” value in data set [4] (enalapril 20 mg/kg/day in drinking water, cine MRI, days 10 and 21 post-MI) is given as “no significant differences”.
